In patent publication US20180099931A1 (AbbVie S.à.r.l., priority 2016, published 2018):
pEC50: −log10 of the molar value. Like-named read-outs stand apart in the source and are kept apart here.

Molecular target: T1, F508delCFTR (Homo sapiens, UniProt P13569, DEL508-508)
T1 construct: expressed in transfected cells; host or cells: CFBE41o- human lung-derived epithelial cells (CFBE4lo-F508delCFTR-HRP), doxycycline-inducible
Assay: Cell Surface Expression-Horse Radish Peroxidase (CSE-HRP) Assay;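 on Maximum % activity (with co-corrector): co-corrector and positive control are both the same reference corrector at 2 µM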;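 on Maximum % activity (without co-corrector): percent of the 2 µM on-plate positive control corrector response above DMSO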
Assay type: cell-based
Conditions: for Maximum % activity (with co-corrector) / Emax: maximum at any tested concentration, normalized to on-plate positive control; for Emax: read-out: Maximum % activity (without co-corrector)

[1] = CSE-HRP, test compound without co-corrector, read-out: EC50 (without co-corrector)
[2] = CSE-HRP, with co-corrector (2 μM of 3-[(2R,4R)-4-({[1-(2,2-difluoro-1,3-benzodioxol-5-yl)cyclopropyl]carbonyl}amino)-7-methoxy-3,4-dihydro-2H-chromen-2-yl]benzoic acid), read-out: EC50 (with co-corrector)
[3] = CSE-HRP, with co-corrector (2 μM)
[4] = test compound without co-corrector, read-out: EC50 (without co-corrector)
[5] = with co-corrector (2 μM of 3-[(2R,4R)-4-({[1-(2,2-difluoro-1,3-benzodioxol-5-yl)cyclopropyl]carbonyl}amino)-7-methoxy-3,4-dihydro-2H-chromen-2-yl]benzoic acid), read-out: EC50 (with co-corrector)
[6] = test compound without co-corrector
[7] = with co-corrector (2 μM of 3-[(2R,4R)-4-({[1-(2,2-difluoro-1,3-benzodioxol-5-yl)cyclopropyl]carbonyl}amino)-7-methoxy-3,4-dihydro-2H-chromen-2-yl]benzoic acid)

T1 sequence (P13569 with tags, fused parts or gaps DEL508-508): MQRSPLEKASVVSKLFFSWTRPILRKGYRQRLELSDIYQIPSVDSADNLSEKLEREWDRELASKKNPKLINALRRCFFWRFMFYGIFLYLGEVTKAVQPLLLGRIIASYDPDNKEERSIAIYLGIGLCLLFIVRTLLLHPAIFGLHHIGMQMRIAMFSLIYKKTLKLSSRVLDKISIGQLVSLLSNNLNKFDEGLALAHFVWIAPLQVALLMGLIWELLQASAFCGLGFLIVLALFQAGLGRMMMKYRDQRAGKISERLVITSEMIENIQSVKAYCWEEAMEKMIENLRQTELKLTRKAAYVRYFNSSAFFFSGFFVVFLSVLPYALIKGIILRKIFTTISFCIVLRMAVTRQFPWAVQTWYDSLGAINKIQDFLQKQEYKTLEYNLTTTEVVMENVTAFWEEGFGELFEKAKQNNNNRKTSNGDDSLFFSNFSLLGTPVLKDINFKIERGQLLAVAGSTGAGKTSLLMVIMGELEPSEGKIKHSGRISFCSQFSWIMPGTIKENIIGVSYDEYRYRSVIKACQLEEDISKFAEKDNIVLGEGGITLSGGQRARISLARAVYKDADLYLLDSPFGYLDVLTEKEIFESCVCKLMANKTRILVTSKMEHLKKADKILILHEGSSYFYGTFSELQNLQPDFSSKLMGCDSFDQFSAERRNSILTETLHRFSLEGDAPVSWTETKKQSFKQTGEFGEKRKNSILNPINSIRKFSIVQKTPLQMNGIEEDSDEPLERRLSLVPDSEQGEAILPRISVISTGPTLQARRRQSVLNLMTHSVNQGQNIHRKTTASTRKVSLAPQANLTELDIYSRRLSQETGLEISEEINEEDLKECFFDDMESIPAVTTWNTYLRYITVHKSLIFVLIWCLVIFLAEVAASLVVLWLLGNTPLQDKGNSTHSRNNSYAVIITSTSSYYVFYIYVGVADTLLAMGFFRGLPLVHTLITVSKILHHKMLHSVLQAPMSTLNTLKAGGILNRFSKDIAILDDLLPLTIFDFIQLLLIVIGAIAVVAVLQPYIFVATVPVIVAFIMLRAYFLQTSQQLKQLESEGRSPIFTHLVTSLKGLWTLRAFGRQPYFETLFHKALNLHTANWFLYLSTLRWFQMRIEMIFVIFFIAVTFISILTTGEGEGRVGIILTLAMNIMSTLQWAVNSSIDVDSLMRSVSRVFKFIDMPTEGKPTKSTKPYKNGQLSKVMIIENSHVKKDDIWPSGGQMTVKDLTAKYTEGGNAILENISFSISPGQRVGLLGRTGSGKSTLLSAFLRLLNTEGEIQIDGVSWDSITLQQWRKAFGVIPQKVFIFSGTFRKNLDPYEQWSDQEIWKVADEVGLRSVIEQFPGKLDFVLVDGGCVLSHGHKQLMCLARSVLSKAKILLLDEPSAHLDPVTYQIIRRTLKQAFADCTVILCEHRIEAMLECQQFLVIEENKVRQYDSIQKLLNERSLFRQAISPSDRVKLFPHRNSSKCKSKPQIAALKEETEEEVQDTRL

SMILES	pEC50 [1]	pEC50 [2]	Maximum % activity (with co-corrector) [3]	Emax (CSE-HRP, without co-corrector)	pEC50 [4]	pEC50 [5]	Maximum % activity (with co-corrector) (with co-corrector (2 μM))	Emax (without co-corrector)	Emax [6]	Maximum % activity (with co-corrector) [7]
COc1ccc(C(F)(F)F)cc1CN[C@H]1[C@H](C(C)(C)C)[C@@H](C(=O)O)N(C(=O)OC(C)C)[C@H]1c1cccc(Cl)c1 [Example I-252]	5.00 to 6.00	5.00 to 6.00	+++ (≥350)	> 200%	–	–	–	–	–	–
COc1ccc(C(C)(C)C)cc1CN[C@H]1[C@H](C(C)(C)C)[C@@H](C(=O)O)N(C(=O)C(OC)C2CC2)[C@H]1c1ccccc1 (single isomer, unassigned) [Example I-95]	–	–	–	–	5.00 to 6.00	5.00 to 6.00	+++ (≥350)	> 200%	–	–
COc1ncc(C2CCC2)cc1CN[C@H]1[C@H](C(C)(C)C)[C@@H](C(=O)O)N(C(=O)[C@@H]2CCCO2)[C@H]1c1ccccc1C(F)(F)F [Example I-286]	5.00 to 6.00	> 6.00	+++ (≥350)	100 to 200%	–	–	–	–	–	–
COc1ccc(C(C)(C)C)cc1CN[C@H]1[C@H](C(C)(C)C)[C@@H](C(=O)O)N(C(=O)[C@H](C)c2ccccc2)[C@H]1c1cccnc1OC [Example I-239]	–	–	–	–	5.00 to 6.00	5.00 to 6.00	+++ (≥350)	100 to 200%	–	–
Cc1cc(C(F)(F)F)cc(N[C@@H]2[C@@H](C(C)(C)C)[C@H](C(=O)O)N(C(=O)C3CCCCC3)[C@@H]2c2ccccc2)n1 [Example 3, (2R,3R,4R,5R)-3-tert-butyl-1-(cyclohexanecarbonyl)-4-{[6-methyl-4-(trifluoromethyl)pyridin-2-yl]amino}-5-phenylpyrrolidine-2-carboxylic acid]	–	–	–	–	5.00 to 6.00	5.00 to 6.00	++ (≥150 and <350)	< 100%	–	–
COc1ccc(C(C)(C)C)cc1CN[C@H]1[C@H](C(C)(C)C)[C@@H](C(=O)O)N(C(=O)[C@@H]2CCCO2)[C@H]1c1ccccc1C(C)C [Example 104, (2S,3S,4S,5S)-3-tert-butyl-4-{[(5-tert-butyl-2-methoxyphenyl)methyl]amino}-1-[(2S)-oxolane-2-carbonyl]-5-[2-(propan-2-yl)phenyl]pyrrolidine-2-carboxylic acid]	–	–	–	–	5.00 to 6.00	> 6.00	+++ (≥350)	> 200%	–	–
CC(C)(C)[C@@H]1[C@@H](Nc2nccc(C(F)(F)F)n2)[C@@H](c2ccccc2)N(C(=O)C2CCCCC2)[C@H]1C(=O)O (racemic) [Example I-5]	–	–	–	–	5.00 to 6.00	5.00 to 6.00	+++ (≥350)	< 100%	–	–
COc1ncc(C(F)(F)F)cc1CN[C@H]1[C@H](C23CC(C2)C3)[C@@H](C(=O)O)N(C(=O)C2CCCCC2)[C@H]1c1ccccc1 [Example 57, (2S,3S,4S,5S)-3-(bicyclo[1.1.1.1]pentan-1-yl)-1-(cyclohexanecarbonyl)-4-({[2-methoxy-5-(trifluoromethyl)pyridin-3-yl]methyl}amino)-5-phenylpyrrolidine-2-carboxylic acid]	–	–	–	–	> 6.00	> 6.00	+++ (≥350)	100 to 200%	–	–
COc1ncc(C2CCC2)cc1CN[C@H]1[C@H](C(C)(C)C)[C@@H](C(=O)O)N(C(=O)[C@@H]2CCCO2)[C@H]1c1ccccc1C1CC1 [Example 107, (2S,3S,4S,5S)-3-tert-butyl-4-{[(5-cyclobutyl-2-methoxypyridin-3-yl)methyl]amino}-5-(2-cyclopropylphenyl)-1-[(2S)-oxolane-2-carbonyl]pyrrolidine-2-carboxylic acid]	–	–	–	–	5.00 to 6.00	> 6.00	+++ (≥350)	> 200%	–	–
COc1cc(C(F)(F)F)ccc1CN[C@H]1[C@H](C(C)(C)C)[C@@H](C(=O)O)N(C(=O)C2CCCCC2)[C@H]1c1ccccc1 [Example 8, (2S,3S,4S,5S)-3-tert-butyl-1-(cyclohexanecarbonyl)-4-({[2-methoxy-4-(trifluoromethyl)phenyl]methyl}amino)-5-phenylpyrrolidine-2-carboxylic acid]	–	–	–	–	5.00 to 6.00	> 6.00	+++ (≥350)	100 to 200%	–	–

Results, then the compound that gave them:

pEC50 [1]	pEC50 [2]	Maximum % activity (with co-corrector) [3]	Emax (CSE-HRP, without co-corrector)	pEC50 [4]	pEC50 [5]	Maximum % activity (with co-corrector) (with co-corrector (2 μM))	Emax (without co-corrector)	Emax [6]	Maximum % activity (with co-corrector) [7]	SMILES
> 6.00	> 6.00	+++ (≥350)	100 to 200%	–	–	–	–	–	–	COc1ccc(-c2ccccc2)cc1CN[C@H]1[C@H](C(C)(C)C)[C@@H](C(=O)O)N(C(=O)C2CCCCC2)[C@H]1c1ccccc1F [II-245]
–	–	–	–	5.00 to 6.00	5.00 to 6.00	–	–	100 to 200%	+++ (≥350)	COc1ncc(C2CCC2)cc1CN[C@H]1[C@H](C(C)(C)C)[C@@H](C(=O)O)N(C(=O)[C@@H]2CCCO2)[C@H]1c1ccccc1C(F)F [II-597]
–	–	–	–	5.00 to 6.00	5.00 to 6.00	–	–	100 to 200%	+++ (≥350)	COc1ccc(C(C)(C)C)cc1CN[C@H]1[C@H](C(C)(C)C)[C@@H](C(=O)O)N(C(=O)c2cnn3c2CCCC3)[C@H]1c1ccccc1 [II-364]
5.00 to 6.00	5.00 to 6.00	+++ (≥350)	< 100%	–	–	–	–	–	–	CC(C)COc1ccccc1CN[C@@H]1[C@@H](C(C)(C)C)[C@H](C(=O)O)N(C(=O)C2CCCCC2)[C@@H]1c1ccccc1 (racemic) [II-5]
5.00 to 6.00	> 6.00	+++ (≥350)	> 200%	–	–	–	–	–	–	COc1ccc(C(C)(C)C)cc1CN[C@H]1[C@H](C(C)(C)C)[C@@H](C(=O)O)N(C(=O)Cc2cccc(C#N)c2)[C@H]1c1ccccc1 [II-240]
–	–	–	–	5.00 to 6.00	–	–	–	< 100%	++ (≥150 and <350)	COc1ccc(C(C)(C)C)cc1CN[C@H]1[C@H](C(C)(C)C)[C@@H](C(=O)O)N(C(=O)C2CCCN(C)C2=O)[C@H]1c1ccccc1 (single isomer, unassigned) [II-444]
–	–	–	–	< 5.00	5.00 to 6.00	+ (<150)	–	< 100%	–	CC(C)(C)[C@@H]1[C@@H](NCc2cc(F)ccc2S(C)(=O)=O)[C@@H](c2ccccc2)N(C(=O)C2CCCCC2)[C@H]1C(=O)O (racemic) [III-108]
5.00 to 6.00	5.00 to 6.00	+++ (≥350)	100 to 200%	–	–	–	–	–	–	COCc1ccc(OC)c(CN[C@H]2[C@H](C(C)(C)C)[C@@H](C(=O)O)N(C(=O)C3CCCCC3)[C@H]2c2ccccc2)c1 [II-242]
> 6.00	5.00 to 6.00	++ (≥150 and <350)	< 100%	–	–	–	–	–	–	Cc1ccc(C(F)(F)F)cc1CN[C@@H]1[C@@H](C(C)(C)C)[C@H](C(=O)O)N(C(=O)C2CCCCC2)[C@@H]1c1ccccc1 (racemic) [II-72]
5.00 to 6.00	> 6.00	+++ (≥350)	> 200%	–	–	–	–	–	–	COc1ccc(C(C)(C)C)cc1CN[C@H]1[C@H](C(C)(C)C)[C@@H](C(=O)O)N(C(=O)Cc2ncc(Cl)cc2F)[C@H]1c1ccccc1 [II-236]
–	–	–	–	< 5.00	5.00 to 6.00	–	–	< 100%	++ (≥150 and <350)	COc1cc(Cl)ccc1CN[C@@H]1[C@@H](C)[C@H](C(=O)O)N(C(=O)N(C(C)C)C(C)C)[C@@H]1c1ccccc1 (racemic) [III-39]
–	–	–	–	5.00 to 6.00	5.00 to 6.00	–	–	< 100%	++ (≥150 and <350)	COc1nc2ccccc2cc1CN[C@H]1[C@H](C(C)(C)C)[C@@H](C(=O)O)N(C(=O)[C@@H]2CCCO2)[C@H]1c1cccnc1N(C)C [II-599]
